Data as given in ChEMBL document CHEMBL1201862, “PubChem BioAssay data set” (2004).
Calls of active or inactive are those of the source.

What was measured:
[1] = inhibitors of firefly luciferase expression or activity, dose response, H4 neuroglioma cells, luminescence (AID 1990); type: functional, cell-based
[2] = luciferase reporter signal reduction – luminescence, H4-C neuroglioblastoma cells, dose response (AID 2458); type: functional, cell-based;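 note: H4 neuroglioblastoma cells stably carrying a luciferase reporter gene fusion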
[3] = cells; type: functional, cell-based
[4] = Luminescence Cell-Based Dose Response HTS to Identify Inhibitors of 5'UTR Stem-Loop Driven Prion Protein mRNA Translation in H4 Neuroglioblastoma Cells. [Related pubchem assays: 1827 (Project Summary), 1813 (Primary HTS)]; type: functional
[5] = target: T1, Heat shock factor protein 1 (Mus musculus, UniProt P38532); test: inhibition of MG132-induced HSE-luciferase signal, confirmation, cell-based, NIH3T3, luminescence, dose retest (AID 2382); type: functional;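 note: NIH3T3 fibroblasts with HSF1-driven luciferase reporter stressed by proteasome inhibitor MG132; luminescence from HSF1-driven luciferase expression after 8 hours of MG132 stress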
T1 sequence (P38532 whole entry): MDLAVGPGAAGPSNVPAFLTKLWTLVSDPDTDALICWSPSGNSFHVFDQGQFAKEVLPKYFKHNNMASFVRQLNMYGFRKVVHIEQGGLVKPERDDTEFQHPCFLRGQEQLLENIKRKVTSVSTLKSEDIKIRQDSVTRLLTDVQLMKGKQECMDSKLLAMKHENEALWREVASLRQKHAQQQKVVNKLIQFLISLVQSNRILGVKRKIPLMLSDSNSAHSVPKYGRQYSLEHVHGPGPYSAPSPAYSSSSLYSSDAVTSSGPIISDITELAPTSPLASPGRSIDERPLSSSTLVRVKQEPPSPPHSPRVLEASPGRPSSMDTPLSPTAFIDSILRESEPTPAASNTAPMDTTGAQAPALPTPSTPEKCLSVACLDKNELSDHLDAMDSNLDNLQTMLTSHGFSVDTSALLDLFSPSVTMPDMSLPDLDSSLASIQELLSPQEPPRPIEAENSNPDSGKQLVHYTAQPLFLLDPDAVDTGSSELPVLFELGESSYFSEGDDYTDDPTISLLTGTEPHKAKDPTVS

[6] = inhibitors of SNCA 5'UTR-driven reporter translation, confirmation, H4 neuroglioma cells, luminescence (AID 1988); type: functional, cell-based
[7] = Luminescence-based counterscreen assay for KLF5 inhibitors: dose response cell-based high throughput screening assay to identify cytotoxic compounds using the IEC-6 intestinal epithelial cell line. [Related pubchem assays: 1700 (Primary screen.), 1834 (Confirmation screen.), 1858 (Summary AID.), 1905 (Counterscreen.)]; type: functional
[8] = inhibitors of SNCA 5'UTR-driven translation, confirmation, luminescence, H4 neuroglioblastoma cells, dose confirmation (AID 2454); type: functional, cell-based;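 note: H4 neuroglioblastoma cells carrying an alpha-synuclein 5'UTR luciferase reporter; potency for inhibition of the luciferase signal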
[9] = target: FAD-linked sulfhydryl oxidase ALR (Homo sapiens, UniProt P55789); test: inhibitors of human ALR sulfhydryl oxidase, dose response, biochemical, H2O2 detection, luminescence, cherry-pick (AID 493248)
Chain of FAD-linked sulfhydryl oxidase ALR (P55789 whole entry, the tested form may be a part): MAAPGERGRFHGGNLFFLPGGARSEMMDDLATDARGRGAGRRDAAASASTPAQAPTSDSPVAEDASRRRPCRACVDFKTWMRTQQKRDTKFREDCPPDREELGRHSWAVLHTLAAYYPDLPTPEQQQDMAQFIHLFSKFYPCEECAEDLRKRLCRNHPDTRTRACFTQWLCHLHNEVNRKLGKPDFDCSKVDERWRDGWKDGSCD

[10] = inhibitors of HIV Env-driven cell fusion, dose response, cherry-pick (AID 652057); type: functional, cell-based
[11] = ZM109 Env clade C HIV-1 fusion inhibitors, dose response, HeLa effector, CEM target cells, luciferase, cherry-pick (AID 652058); type: functional, cell-based
[12] = target: Paired box protein Pax-8 (Homo sapiens, UniProt Q06710); test: inhibitors of PAX8-driven TPO luciferase reporter, dose response, RMG-I cells, cherry-pick (AID 687027); type: functional, cell-based;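 note: luciferase reporter driven by Pax8 target thyroperoxidase promoter measured by SteadyGlo luminescence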
Chain of Paired box protein Pax-8 (Q06710 whole entry, the tested form may be a part): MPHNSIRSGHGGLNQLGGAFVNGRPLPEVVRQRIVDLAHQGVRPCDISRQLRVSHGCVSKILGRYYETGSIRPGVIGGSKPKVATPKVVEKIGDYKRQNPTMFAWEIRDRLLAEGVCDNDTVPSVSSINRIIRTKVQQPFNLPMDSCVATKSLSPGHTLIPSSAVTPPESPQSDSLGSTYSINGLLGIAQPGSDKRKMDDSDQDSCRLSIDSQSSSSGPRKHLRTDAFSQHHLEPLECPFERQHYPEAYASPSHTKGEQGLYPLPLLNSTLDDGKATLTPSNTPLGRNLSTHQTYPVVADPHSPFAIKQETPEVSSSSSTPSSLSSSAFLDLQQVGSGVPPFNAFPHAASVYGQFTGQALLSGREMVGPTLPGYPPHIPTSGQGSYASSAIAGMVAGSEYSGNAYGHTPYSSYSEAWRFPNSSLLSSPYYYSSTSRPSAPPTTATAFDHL

[13] = off-target signal loss in HeLa-CEM21 co-culture – HeLa F-luc CTL cells, cherry-picked, counter-screen for HIV-1 Env fusion inhibitor project, dose response (AID 652040); type: functional, cell-based;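 note: potency for signal decrease marking cytotoxic or nonspecific inhibition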
[14] = inhibitors of clade B AD8 Env fusion, dose response, cell-based, cherry-pick (AID 652062); type: functional;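 note: luciferase signal from cell-cell fusion driven by HIV-1 clade B AD8 Env; potency is for inhibitors of fusion seen as a drop in luminescence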
[15] = A549 cell cytotoxicity, dose response, cytotoxicity control, plate reader, cherry-pick, antagonist series (AID 743412); type: functional, cell-based
[16] = LGR2 antagonists, dose response, cell-based, HEK293, CRE-luciferase reporter, cherry pick, set 2 (AID 743343); type: functional;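 note: transfected cells were stimulated with diluted bursicon conditioned medium after compound addition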
[17] = MC4R antagonists, dose response, counter-screen for LGR2 antagonist project, cell-based, plate reader, cherry pick (AID 743444); type: functional;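 note: transfected HEK 293 cells stimulated with alpha-MSH peptide; potency of inhibitors of the alpha-MSH evoked signal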
[18] = HEK293 cell cytotoxicity, dose response, cytotoxicity control, plate reader, cherry-picked samples (AID 743446); type: functional, cell-based
[19] = target: Hexokinase HKDC1 (Homo sapiens, UniProt Q2TB90); test: HKDC1 hexokinase inhibitors, dose response, biochemical, W721R variant (AID 504729); type: functional
Chain of Hexokinase HKDC1 (Q2TB90 whole entry): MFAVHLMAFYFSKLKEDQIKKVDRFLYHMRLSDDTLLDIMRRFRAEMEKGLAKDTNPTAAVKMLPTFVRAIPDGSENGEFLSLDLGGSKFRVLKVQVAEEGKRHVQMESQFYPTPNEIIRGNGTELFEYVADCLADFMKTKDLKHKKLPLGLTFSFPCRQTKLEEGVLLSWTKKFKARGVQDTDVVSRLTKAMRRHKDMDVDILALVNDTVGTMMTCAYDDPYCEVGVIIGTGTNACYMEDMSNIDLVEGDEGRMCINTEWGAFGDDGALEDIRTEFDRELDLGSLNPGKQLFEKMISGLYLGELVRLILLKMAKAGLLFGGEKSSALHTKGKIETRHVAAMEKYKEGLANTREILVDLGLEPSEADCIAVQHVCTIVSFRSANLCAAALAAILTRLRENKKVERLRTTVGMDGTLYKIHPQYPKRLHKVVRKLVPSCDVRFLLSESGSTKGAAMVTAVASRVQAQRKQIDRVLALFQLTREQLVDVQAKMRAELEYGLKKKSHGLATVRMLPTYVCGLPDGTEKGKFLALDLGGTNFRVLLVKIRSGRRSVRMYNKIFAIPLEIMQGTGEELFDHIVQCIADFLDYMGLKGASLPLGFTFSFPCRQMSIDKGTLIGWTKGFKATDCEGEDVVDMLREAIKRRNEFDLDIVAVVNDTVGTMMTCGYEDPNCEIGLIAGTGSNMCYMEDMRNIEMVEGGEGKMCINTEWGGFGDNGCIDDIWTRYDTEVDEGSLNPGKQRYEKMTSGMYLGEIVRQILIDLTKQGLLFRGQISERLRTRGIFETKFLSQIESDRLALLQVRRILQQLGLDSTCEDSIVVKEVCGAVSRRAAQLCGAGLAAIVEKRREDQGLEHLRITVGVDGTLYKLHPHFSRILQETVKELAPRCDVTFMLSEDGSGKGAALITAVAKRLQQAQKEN

[20] = target: DNA (cytosine-5)-methyltransferase 1 (Homo sapiens, UniProt P26358); test: DNMT1 methyltransferase inhibitors, confirmation, biochemical, fluorescent molecular beacon (AID 602386); type: functional
Chain of DNA (cytosine-5)-methyltransferase 1 (P26358 whole entry): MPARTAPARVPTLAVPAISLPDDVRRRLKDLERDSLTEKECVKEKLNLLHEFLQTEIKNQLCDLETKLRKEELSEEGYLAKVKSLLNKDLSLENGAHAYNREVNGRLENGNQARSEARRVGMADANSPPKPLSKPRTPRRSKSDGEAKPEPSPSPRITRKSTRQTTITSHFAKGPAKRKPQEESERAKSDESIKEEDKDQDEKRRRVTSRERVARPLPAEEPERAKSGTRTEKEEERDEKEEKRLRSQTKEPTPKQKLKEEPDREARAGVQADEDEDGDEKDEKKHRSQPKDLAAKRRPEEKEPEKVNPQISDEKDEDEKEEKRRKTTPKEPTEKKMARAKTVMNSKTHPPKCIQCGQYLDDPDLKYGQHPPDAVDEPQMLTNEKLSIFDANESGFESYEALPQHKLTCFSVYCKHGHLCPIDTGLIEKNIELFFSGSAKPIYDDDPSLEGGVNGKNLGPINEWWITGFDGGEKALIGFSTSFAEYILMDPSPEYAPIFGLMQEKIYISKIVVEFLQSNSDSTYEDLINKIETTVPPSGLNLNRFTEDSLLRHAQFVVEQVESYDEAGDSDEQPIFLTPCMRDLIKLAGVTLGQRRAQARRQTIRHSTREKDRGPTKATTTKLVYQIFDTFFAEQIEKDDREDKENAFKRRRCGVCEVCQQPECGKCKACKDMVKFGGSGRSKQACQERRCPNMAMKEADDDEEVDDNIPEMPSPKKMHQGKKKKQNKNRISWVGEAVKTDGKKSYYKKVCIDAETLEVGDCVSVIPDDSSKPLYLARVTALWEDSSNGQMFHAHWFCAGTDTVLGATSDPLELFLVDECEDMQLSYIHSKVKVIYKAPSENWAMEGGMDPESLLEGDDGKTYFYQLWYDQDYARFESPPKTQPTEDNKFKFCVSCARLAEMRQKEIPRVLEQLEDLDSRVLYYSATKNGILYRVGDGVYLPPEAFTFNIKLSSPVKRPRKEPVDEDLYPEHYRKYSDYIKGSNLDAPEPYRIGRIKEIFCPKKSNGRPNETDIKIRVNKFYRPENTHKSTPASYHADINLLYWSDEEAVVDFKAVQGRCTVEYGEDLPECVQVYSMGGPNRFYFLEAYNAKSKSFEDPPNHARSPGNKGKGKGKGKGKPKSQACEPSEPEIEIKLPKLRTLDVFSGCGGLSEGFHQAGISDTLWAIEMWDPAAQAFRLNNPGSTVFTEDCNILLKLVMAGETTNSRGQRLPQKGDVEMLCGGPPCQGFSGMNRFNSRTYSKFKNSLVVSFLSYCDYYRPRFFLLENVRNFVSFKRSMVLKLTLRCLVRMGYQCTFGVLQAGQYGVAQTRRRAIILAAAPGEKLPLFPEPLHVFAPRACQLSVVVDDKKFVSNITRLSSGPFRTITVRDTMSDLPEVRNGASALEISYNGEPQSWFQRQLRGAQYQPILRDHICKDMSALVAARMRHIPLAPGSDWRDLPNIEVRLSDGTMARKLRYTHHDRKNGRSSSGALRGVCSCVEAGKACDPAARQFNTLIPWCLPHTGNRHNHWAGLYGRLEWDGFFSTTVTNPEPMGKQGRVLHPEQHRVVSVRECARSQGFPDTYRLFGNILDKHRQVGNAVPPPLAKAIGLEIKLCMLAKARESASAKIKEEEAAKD

[21] = target: Cytochrome P450 3A4 (Homo sapiens, UniProt P08684); conditions: Potency;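 note: confirmatory qHTS run detecting inhibitors and substrates of CYP3A4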
[22] = target: Cytochrome P450 2C9 (Homo sapiens, UniProt P11712); conditions: Potency
Chain of Cytochrome P450 2C9 (P11712 whole entry): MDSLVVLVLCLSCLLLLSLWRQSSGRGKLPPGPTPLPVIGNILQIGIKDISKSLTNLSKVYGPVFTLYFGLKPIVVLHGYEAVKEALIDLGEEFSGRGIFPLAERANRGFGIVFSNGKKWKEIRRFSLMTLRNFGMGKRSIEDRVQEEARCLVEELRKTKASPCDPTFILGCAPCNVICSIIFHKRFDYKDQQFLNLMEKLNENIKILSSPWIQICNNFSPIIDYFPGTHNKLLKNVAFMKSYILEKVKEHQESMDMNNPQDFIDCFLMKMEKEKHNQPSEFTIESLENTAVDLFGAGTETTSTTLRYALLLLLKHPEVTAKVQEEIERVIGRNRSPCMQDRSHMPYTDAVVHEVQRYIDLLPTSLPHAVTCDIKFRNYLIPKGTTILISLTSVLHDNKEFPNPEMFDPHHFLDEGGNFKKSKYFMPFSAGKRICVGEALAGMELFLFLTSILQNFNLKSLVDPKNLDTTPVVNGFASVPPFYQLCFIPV

[23] = target: DNA dC->dU-editing enzyme APOBEC-3G (Homo sapiens, UniProt Q9HC16); test: Dose Response confirmation of small molecule APOBEC3G DNA Deaminase Inhibitors via a fluorescence-based single-stranded DNA deaminase assay. [Related pubchem assays (depositor defined):AID493012, AID493028]; type: functional
Chain of DNA dC->dU-editing enzyme APOBEC-3G (Q9HC16 whole entry): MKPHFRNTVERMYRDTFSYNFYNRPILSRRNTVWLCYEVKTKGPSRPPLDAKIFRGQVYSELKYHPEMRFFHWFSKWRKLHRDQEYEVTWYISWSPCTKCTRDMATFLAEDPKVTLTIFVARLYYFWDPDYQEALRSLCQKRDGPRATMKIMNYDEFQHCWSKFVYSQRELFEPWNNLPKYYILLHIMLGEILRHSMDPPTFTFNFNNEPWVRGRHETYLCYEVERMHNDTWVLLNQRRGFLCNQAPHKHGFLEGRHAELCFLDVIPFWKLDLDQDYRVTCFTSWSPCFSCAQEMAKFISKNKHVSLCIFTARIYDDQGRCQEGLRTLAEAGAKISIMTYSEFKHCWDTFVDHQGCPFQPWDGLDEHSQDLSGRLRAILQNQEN

[24] = target: T2, Polyadenylate-binding protein 1 (Homo sapiens, UniProt P11940); test: PABP1 MLLE–PAM2 interaction inhibitors, dose response, miRNA deadenylation inhibitor project, biochemical, fluorescence polarization, Cy5-PAM2 peptide, secondary (AID 602260); type: functional; conditions: read-out: IC50_Mean
T2 sequence (P11940 whole entry): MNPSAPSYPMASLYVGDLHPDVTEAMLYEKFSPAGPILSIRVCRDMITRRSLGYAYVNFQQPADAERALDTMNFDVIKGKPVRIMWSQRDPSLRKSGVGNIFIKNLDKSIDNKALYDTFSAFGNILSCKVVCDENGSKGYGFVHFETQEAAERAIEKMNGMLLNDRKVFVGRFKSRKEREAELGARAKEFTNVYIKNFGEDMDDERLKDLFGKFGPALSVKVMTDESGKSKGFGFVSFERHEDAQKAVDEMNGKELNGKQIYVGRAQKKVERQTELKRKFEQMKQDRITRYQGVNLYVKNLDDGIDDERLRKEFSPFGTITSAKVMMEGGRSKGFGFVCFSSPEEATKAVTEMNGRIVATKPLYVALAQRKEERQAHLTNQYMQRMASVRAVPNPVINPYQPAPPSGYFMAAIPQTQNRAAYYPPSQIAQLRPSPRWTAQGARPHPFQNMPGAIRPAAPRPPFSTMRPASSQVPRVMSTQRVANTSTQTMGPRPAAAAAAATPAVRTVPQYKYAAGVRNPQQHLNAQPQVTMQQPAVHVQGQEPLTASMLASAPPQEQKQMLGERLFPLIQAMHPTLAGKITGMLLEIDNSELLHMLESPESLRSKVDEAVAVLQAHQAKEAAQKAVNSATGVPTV

[25] = target: T2, Polyadenylate-binding protein 1; test: PABP1 MLLE–PAM2 binding inhibitor potency, dose response, biochemical, fluorescence polarization, FITC-PAM2 peptide (AID 602259); type: functional; conditions: read-out: IC50_Mean

O=C(O)c1cccc(COc2ccc3c(c2)CCC3)c1
EC50 [1]: 212 nM (active) | EC50 [2]: 233 nM (active) | EC50 [3]: 538 nM (active) | EC50 [4]: < 100 nM (active) | EC50 [5]: 376 nM (inconclusive) | EC50 [6]: < 100 nM (active) | IC50 [7]: > 39800 nM (not active) | EC50 [8]: 197 nM (active) | AC50 [9]: 1370 nM (active) | AC50 [10]: 684 nM (active) | AC50 [11]: 5090 nM (active) | AC50 [12]: 3790 nM (active) | AC50 [13]: 1680 nM (active) | AC50 [14]: 1470 nM (active) | AC50 [15]: > 52000 nM (inactive) | AC50 [16]: 326 nM (active) | AC50 [17]: 383 nM (active) | AC50 [18]: > 52000 nM (inactive)

Cc1ccc(N2C(=O)NC(=O)/C(=C\c3cc(C)n(-c4sc5c(c4C#N)CCCC5)c3C)C2=O)cc1
IC50 [19]: 14100 nM (active) | IC50 [20]: 11100 nM (active)

CC1CCC2C(=O)N3C(CCC(C)C3c3ccccc3Br)C(=O)N2C1c1ccc(C#CCN(C)C)cc1 (stereo unspecified)
AC50 [21]: 3160 nM (inconclusive) | AC50 [22]: 3980 nM (inconclusive)

CC(C)[C@@H](CC(=O)N[C@@H]1CCCC[C@H]1C(=O)N[C@H](CC(=O)N[C@@H](CCC(=O)O)CC(=O)O)Cc1c[nH]c2ccccc12)NC(=O)C[C@H](CO)NC(=O)[C@@H]1CNCC[C@H]1N
AC50 [22]: 31600 nM (inconclusive)

CCOC(=O)c1ccc(NC(=O)CC2Sc3ncnn3C2=O)cc1 (stereo unspecified)
IC50 [23]: 61800 nM (active) | IC50 [24]: > 66000 nM (inactive) | IC50 [25]: > 66000 nM (inactive)
